Assays:
Assay type in all cases: cell-based, mouse
OSKM/RR/OG-MEFs = experiment: single-shRNA validation, flow cytometry of the Oct4-GFP reporter; details: FIG. 1, day 11 after doxycycline induction; DMEM with FCS and ascorbate
Description: To validate hits identified in the primary multiplexed screen, a set of 32 independent shRNAs including several of the top hits as well as a panel of intermediately scoring shRNAs were tested in single assays. To this end, OSKM/RR/OG-MEFs were transduced with individual pLENC shRNAs in biological triplicates, selected, and treated with Dox for OSKM induction. The iPS reprogramming efficacy was quantified using flow cytometry analysis of the Oct-4-GFP reporter (FIG. 1) and microscopy (FIG. 2a).
To this end, described MEFs with doxycycline inducible reprogramming factors (OSKM, 4F, Yamanaka factors) were transduced with pLENC-shRNA vectors (co-expressing miRE-based shRNAs, mCherry and a Neo resistance gene) in biological triplicate as described previously. Selection for infected cells was based on G418 resistance. 3 days after infection, cells were trypsinized and each replicate was plated in multiple wells in presence of FCS and ascorbate containing medium as well as doxycycline. Cells were subjected to various conditions for iPS formation starting 24 h after Doxycycline addition, i.e. prior to expected full expression of OSKM factors. Doxycycline was added to media for 7 days. […]
shRNAs were transduced into OSKM MEFs. […] Cells were analyzed using a FACS BD LSRFortessa.

[1] = test system: MEFs with doxycycline inducible reprogramming factors; experiment: iPS colony formation assay in serum replacement, LIF and 2i; details: 2i plus LIF at single cell density, 10000 cells/10 cm dish, doxycycline 7 days
Source text: In order to test the achieved factor of iPS formation enhancement in a colony formation assay, we chose optimal conditions described for iPS formation, i.e. serum replacement, LIF and 2i. The two inhibitors (2i) are shown to support the ground state of pluripotency and enhance iPS formation. More specifically, 2i supports the transition of pre-iPS cells to iPS cells.
In doing so, we intended to measure the factor of improvement in optimal, potentially saturated conditions. 10000 cells were plated/10 cm dish and reprogramming was induced by addition of doxycycline for 7 days. Reprogramming in presence of 2i furthermore represents an additional condition to test versatility of herein described enhanced reprogramming regimen. […]

reprogrammable MEFs = experiment: FACS based timeline of Oct4-GFP expression during reprogramming; details: days of OKSM expression, FIG. 3
Source text: In order to observe the kinetics of reprogramming in the enhanced reprogramming regimen, we quantified GFP positive cells using FACS analysis. GFP driven from the endogenous Oct4 locus serves as a marker for Oct4 expression and thus iPS and possibly pre-iPS state. […] In contrast, Ube2i suppression only slightly accelerated the reprogramming timeline, but made the process much more efficient, and ultimately exceeds the effects of observed for Caf-1 suppression (i.e. the percentage of GFP+ cells actually overtakes the enhancement achieve through Caf-1 suppression at day 10).
The inventors further decided to examine the effects of the gene expression reduction in the absence of the identified chromatin barriers, by following the emergence of Oct4-GFP^+ cells over time. While suppression of Ube2i promoted Oct4-GFP activation slightly earlier than controls (day six with Ube2i shRNA vs. day nine with Renilla shRNA), the suppression of either CAF-1 subunit triggered a dramatic acceleration of this process and consistently generated Oct4-GFP+ cells as early as four days of OKSM expression (FIG. 3). Similar effects were observed by flow cytometry-based analysis of Nanog expression (FIG. 15).

[2] = test system: Oct4-GFP;CAGGS-rtTA3 double-transgenic MEFs; experiment: short-term transient OKSM expression and Tet-regulated shRNA; details: doxycycline for 2 or 4 days
Description: FIG. 22: Short-term transient expression of OKSM and suppression of Chaf1a for only 2-4 days enable robust iPSC reprogramming. Oct4-GFP;CAGGS-rtTA3 double-transgenic MEFs were first transduced with a Tet-regulatable shRNA expression vector encoding a potent Chaf1a shRNA (T3G-mCherry-miRE.Chaf1a.3118), and 3 days later transduced with lentiviral vectors inducibly expressing OKSM from the Tet-responsive promoters TRE (TetO-STEMCCA) or TRE3G (T3G-4Fpuro). Cell were treated with doxycyline for 2 or 4 days starting at day in OKSM infection, triggering a transient and reversible OKSM expression and Chaf1a suppression. Shown is the percentage of Oct4-GFP positive cells at day 11 after lentiviral infection. Error bars indicate standard deviation (SD) of 3 biological replicates. Suppression of Chaf1a, Chaf1b and Ube2i enhance iPSC reprogramming in the use of both Tet-inducible OKSM expression vectors.

[3] = test system: Reprogrammable transgenic MEFs (Tet-OKSM, Rosa26-rtTAM2, Oct4-GFP); experiment: transient siRNA transfection during iPSC reprogramming; details: siRNA transfected 1 to 3 times during doxycycline treatment
Source text: FIG. 26: Transient suppression of Chaf1a, Chaf1b or Ube2i using siRNA transfection enhances iPSC reprogramming. Reprogrammable transgenic MEFs (Tet-OKSM, Rosa26-rtTAM2, Oct4-GFP) where transfected 1 to 3 times at the indicated days of doxycyline treatment with siRNAs targeting Renilla, Chaf1a, Chaf1b, Ube2i. Shown is the fraction of Oct4-GFP positive cells after 11 days. […] Suppression of these targets at early time points of reprogramming (day 1-3 following OKSM expression) seems critical and sequential transfections at different days can enhance this effect. […] The siRNA molecules used in the study have the following sequence: Ube2i.414—2: […] (SEQ ID NO:103), Chaf1a.3120 […] (SEQ ID NO:104), Chaf1b.271 […] (SEQ ID NO:105) and Ren.713 […] (SEQ ID NO:106).

## shRNA.Ren.713: neutral control shRNA (Ren.713) targeting Renilla (guide AGGAATTATAATGCTTATCTA)
OSKM/RR/OG-MEFs
  Oct4-GFP+ cells: < 1%
[1]
  Colony number: 0
Reprogrammable MEFs
  time of Oct4-GFP activation: day nine

## UUUACAAUUUGGAAGUAGCUG (expressed or natural sequence) [Chaf1a.3118]
[2]
  iPS cell formation (Oct4-GFP positive cells at day 11): robust formation of iPS cells

## CACAATTTACTGCCAAAACAA (listed as DNA, chemistry not fully specified) [Ube2i.414—2]
[3]
  effect on fraction of Oct4-GFP positive cells after 11 days: enhances reprogramming

## CAGCTACTTCCAAATTGTAAA (listed as DNA, chemistry not fully specified) [Chaf1a.3120]
[3]
  effect on fraction of Oct4-GFP positive cells after 11 days: enhances reprogramming
